{"source": "paper PMC7916974", "about": "(Viruses, 2021)", "key": {"A/Weiss/43 H1N1 [1]": {"tested_on": "A/Weiss/43 H1N1", "test": "Infected mouse model: lung index, symptoms", "assay_type": "in vivo, BALB/c mice", "settings": "for clinical symptoms of infected mice: intragastric once a day for six days"}, "[2]": {"tested_on": "A/Virginia/ATCC2/2009 H1N1", "test": "microbe, parasite or virus in culture", "assay_type": "cell-based", "settings": "Influenza A virus, MDCK, 72 h"}, "[3]": {"tested_on": "A549 cells infected with A/Weiss/43 H1N1", "assay_type": "cell-based", "settings": "24 h post-infection"}, "A/Weiss/43 H1N1 [4]": {"tested_on": "A/Weiss/43 H1N1", "test": "Viral NP mRNA in lungs of infected mice (qRT-PCR)", "assay_type": "in vivo, BALB/c mice", "settings": "two, four and six days post-infection"}, "[5]": {"tested_on": "pro-inflammatory cytokines (TNF-α, IL-1β, IL-6, and IL-8)", "test": "Cytokine mRNA in lungs of infected mice (qRT-PCR)", "assay_type": "in vivo, BALB/c mice", "settings": "two, four and six days post-infection"}, "influenza A virus [6]": {"tested_on": "influenza A virus", "assay_type": "cell-based"}, "in vitro": {"test": "in vitro", "assay_type": "cell-based", "settings": "human"}, "A/California/2/2014 H3N2": {"tested_on": "A/California/2/2014 H3N2", "test": "microbe, parasite or virus in culture", "assay_type": "cell-based", "settings": "Influenza A virus, H3N2, MDCK, 72 h"}, "[7]": {"test": "Cytotoxicity assay (MTT), MDCK cells", "assay_type": "cell-based, canine", "settings": "dog; for CC50 at 72 h: MDCK cells, MTT, read-out: CC50 (50% cytotoxic concentration)"}, "[8]": {"tested_on": "A/Weiss/43 H1N1-induced apoptosis in A549 cells", "assay_type": "cell-based", "settings": "24 h post-infection"}, "A/Weiss/43 H1N1 [9]": {"tested_on": "A/Weiss/43 H1N1", "assay_type": "cell-based, influenza A virus"}, "influenza A virus [10]": {"tested_on": "influenza A virus", "assay_type": "cell-based", "remark": "listed apart in the source"}, "[11]": {"tested_on": "A549 cells infected with A/Weiss/43 H1N1", "assay_type": "cell-based", "settings": "24 h"}, "A/Weiss/43 H1N1 [12]": {"tested_on": "A/Weiss/43 H1N1", "test": "microbe, parasite or virus in culture", "settings": "Influenza A virus, H1N1, MDCK, 72 h, read-out: EC50 (50% effective concentration)"}, "A/Weiss/43 H1N1 [13]": {"tested_on": "A/Weiss/43 H1N1"}, "A/Weiss/43 H1N1 [14]": {"tested_on": "A/Weiss/43 H1N1", "assay_type": "cell-based, influenza A virus", "settings": "6.25–100 µM"}, "IAV": {"tested_on": "IAV", "test": "microbe, parasite or virus in culture", "assay_type": "cell-based", "settings": "Influenza A virus, ATCC2|H1N1|H3N2, MDCK, read-out: EC50 values (range over IAV strains)"}, "[15]": {"settings": "50 mg/kg/d intragastric, six days post infection"}, "[16]": {"settings": "100 mg/kg/d intragastric, six days post infection"}}, "note": "Read-outs that look alike come from different tables or passages of the source.", "data": [{"smiles": "COC1=C(c2ccc(Cl)cc2)C(=O)OC1(C)COS(=O)(=O)Cc1ccccc1", "note": "(stereo not shown) [Compound 3D]", "values": [{"measurement": "Inhibition ratio of lung index", "setting": "A/Weiss/43 H1N1 [1]; 25 mg/kg/d intragastric, six days post infection", "value": 11.35, "unit": "%"}, {"measurement": "Lung Index", "setting": "A/Weiss/43 H1N1 [1]; 25 mg/kg/d intragastric, six days post infection (virus control 1.70 ± 0.06)", "value": "1.51 ± 0.06"}, {"measurement": "Inhibition ratio of lung index", "setting": "A/Weiss/43 H1N1 [1]; [15]", "value": 28.47, "unit": "%"}, {"measurement": "Lung Index", "setting": "A/Weiss/43 H1N1 [1]; [15]", "value": "1.22 ± 0.09"}, {"measurement": "Inhibition ratio of lung index", "setting": "A/Weiss/43 H1N1 [1]; [16]", "value": 33.21, "unit": "%"}, {"measurement": "Lung Index", "setting": "A/Weiss/43 H1N1 [1]; [16]", "value": "1.14 ± 0.05"}, {"measurement": "clinical symptoms of infected mice", "setting": "A/Weiss/43 H1N1 [1]", "value": "relieve these symptoms"}, {"measurement": "lung indexes versus virus control group (in words)", "setting": "A/Weiss/43 H1N1 [1]; six days post infection", "value": "significantly lower than those in the virus control group"}, {"measurement": "EC50", "setting": "[2]", "value": "18.1 ± 2.6", "unit": "µM"}, {"measurement": "mRNA expression of RIG-I, MAVS, TLR3, IRF3, IRF7", "setting": "[3]", "value": "levels decreased"}, {"measurement": "mRNA expression of cytokines and chemokines (IL-1β, IL-6, IL-8, TNF-α)", "setting": "[3]; dose-dependent", "value": "significantly decreased"}, {"measurement": "expression of viral NP mRNA in IAV infected lungs", "setting": "A/Weiss/43 H1N1 [4]", "value": "decreased the expression of viral NP mRNA in a dose-dependent manner"}, {"measurement": "expressions of pro-inflammatory cytokines in mouse lungs", "setting": "[5]", "value": "inhibit the increased expressions of pro-inflammatory cytokines"}, {"measurement": "levels of NP mRNA, time-of-addition", "setting": "influenza A virus [6]", "value": "significantly suppressed"}, {"measurement": "CC50 at 72 h", "setting": "in vitro", "value": "309 ± 9.96", "unit": "µM"}, {"measurement": "viability at 72 h, 800 µM", "setting": "in vitro", "value": "~40", "unit": "%"}, {"measurement": "EC50", "setting": "A/California/2/2014 H3N2", "value": "24.1 ± 1.16", "unit": "µM"}, {"measurement": "viability at 72 h, 800 µM", "setting": "[7]", "value": "~40", "unit": "%"}, {"measurement": "CC50 at 72 h", "setting": "[7]", "value": "365 ± 1.58", "unit": "µM"}, {"measurement": "apoptosis rate", "setting": "[8]; 30 µM, infected A549 cells (virus control 32.85 ± 3.05%)", "value": "21.93 ± 0.97", "unit": "%"}, {"measurement": "apoptosis rate", "setting": "[8]; 50 µM, infected A549 cells", "value": "15.17 ± 2.87", "unit": "%"}, {"measurement": "apoptosis rate", "setting": "[8]; 80 µM, infected A549 cells", "value": "7.23 ± 1.30", "unit": "%"}, {"measurement": "virus titers of A549 cells", "setting": "A/Weiss/43 H1N1 [9]", "value": "significantly decreased"}, {"measurement": "inhibitory effect on viral replication, added before viral adsorption", "setting": "influenza A virus [10]", "value": "almost no inhibitory effects"}, {"measurement": "inhibitory effect, added during viral inoculation", "setting": "influenza A virus [10]", "value": "slight inhibitory effect"}, {"measurement": "protective effect, added after viral adsorption", "setting": "influenza A virus [10]", "value": "significant protective effect"}, {"measurement": "expression of influenza M2 protein", "setting": "[11]; 30, 50, 80 µM", "value": "inhibited"}, {"measurement": "IAV-induced upregulation of Bax/Bcl-2", "setting": "[11]; A549 cells", "value": "reduced this upregulation"}, {"measurement": "EC50", "setting": "A/Weiss/43 H1N1 [12]", "value": "12.3 ± 0.53", "unit": "µM"}, {"measurement": "SI (ratio of CC50 to EC50)", "setting": "A/Weiss/43 H1N1 [13]", "value": 29.68}, {"measurement": "antiviral activity against A/Weiss/43 H1N1 (in words)", "setting": "A/Weiss/43 H1N1 [13]", "value": "presented the antiviral activity"}, {"measurement": "levels of NP mRNA in IAV-infected MDCK cells", "setting": "A/Weiss/43 H1N1 [14]", "value": "decrease in the levels of NP mRNA"}, {"measurement": "EC50", "setting": "IAV", "value": "12.3 to 24.1", "unit": "µM"}]}, {"smiles": "CCOC(=O)C1=C[C@@H](OC(CC)CC)[C@H](NC(C)=O)[C@@H](N)C1", "note": "[Oseltamivir, reference compound]", "values": [{"measurement": "Inhibition ratio of lung index", "setting": "A/Weiss/43 H1N1 [1]; [15]", "value": 35.99, "unit": "%"}, {"measurement": "Lung Index", "setting": "A/Weiss/43 H1N1 [1]; [15]", "value": "1.09 ± 0.12"}, {"measurement": "clinical symptoms of infected mice", "setting": "A/Weiss/43 H1N1 [1]", "value": "relieve these symptoms"}, {"measurement": "lung indexes versus virus control group (in words)", "setting": "A/Weiss/43 H1N1 [1]; six days post infection", "value": "significantly lower than those in the virus control group"}, {"measurement": "EC50", "setting": "[2]", "value": "6.97 ± 0.38", "unit": "µM"}, {"measurement": "expressions of pro-inflammatory cytokines in mouse lungs", "setting": "[5]", "value": "inhibit the increased expressions of pro-inflammatory cytokines"}, {"measurement": "EC50", "setting": "A/California/2/2014 H3N2", "value": "9.47 ± 2.48", "unit": "µM"}, {"measurement": "CC50 at 72 h", "setting": "[7]", "value": "> 800", "unit": "µM"}, {"measurement": "EC50", "setting": "A/Weiss/43 H1N1 [12]", "value": "0.57 ± 0.29", "unit": "µM"}, {"measurement": "SI (ratio of CC50 to EC50)", "setting": "A/Weiss/43 H1N1 [13]", "value": ">1403.51"}]}, {"smiles": "NC(=O)c1ncn([C@@H]2O[C@H](CO)[C@@H](O)[C@H]2O)n1", "note": "[Ribavirin]", "values": [{"measurement": "clinical symptoms of infected mice", "setting": "A/Weiss/43 H1N1 [1]", "value": "relieve these symptoms"}, {"measurement": "EC50", "setting": "[2]", "value": "13.9 ± 1.06", "unit": "µM"}, {"measurement": "expressions of pro-inflammatory cytokines in mouse lungs", "setting": "[5]", "value": "inhibit the increased expressions of pro-inflammatory cytokines"}, {"measurement": "EC50", "setting": "A/California/2/2014 H3N2", "value": "13 ± 3.74", "unit": "µM"}, {"measurement": "CC50 at 72 h", "setting": "[7]", "value": "608 ± 34", "unit": "µM"}, {"measurement": "EC50", "setting": "A/Weiss/43 H1N1 [12]", "value": "22.2 ± 0.76", "unit": "µM"}]}]}
